# Assay results reported in patent US9540299B2, “MTOR-independent activator of TFEB for autophagy enhancement and uses thereof” (Hong Kong Baptist University, priority 2015, dated 2017).
# How the values were obtained:
# A53T mutant SNCA = assay: Degradation of HA-tagged A53T mutant SNCA in inducible PC12 cells; assay type: cell-based; conditions: for degradation of SNCA A53T: Dox 24 h then 48 h, curcumin 10 μM, analogs 1 μM
# Method: (§1) Expression and intensity of HA-tagged wild-type (WT) or A53T mutant SNCA in inducible PC12 cells are treated with doxycycline (Dox, 2 μg/ml) for 24 h, and then treated with curcumin (10 μM), A2, B3 and C1 (1 μM) for another 48 h (A, C) in the presence or absence of chloroquine (CQ, 20 μM) and wortmannin (WM, 1 μM) (B, D). The expression of HA-SNCA is determined by western blots and quantified from three independent experiments. Corynoxine B (Cory B, 25 μM) is used as a positive control. Relative intensity is normalized to that of ACTB/β-actin. Data are presented as the mean±SD from three independent experiments. *p<0.05 vs. the control (0.1% DMSO).
# (§2) N2a, Hela and Hela cells stably expressing 3×-Flag-TFEB are cultured in DMEM supplemented with 10% FBS. SH-SY5Y cells are cultured in DMEM/F12 supplemented with 10% FBS. For drug treatment, the full medium is replaced by fresh Opti-MEM I and then the compounds (in 0.1% DMSO) are added to the cells and incubated for 12 h. Inducible PC12 cells overexpressing SNCA (WT and A53T) (a kind gift from Prof. David C. Rubinsztein at Cambridge University) are grown in DMEM supplemented with 10% horse serum, 5% FBS, 50 μg/ml G418, and 150 μg/ml hygromycin B at 37° C., 10% CO2. Cells are treated with 2 μg/ml doxycycline (Dox) for 24 h to induce SNCA expression. The full medium is changed to Opti-MEM I containing the testing compounds for another 48 h.
# (§3) Cells are lysed on ice in 1× Lysis Buffer (9803, Life Technologies) with complete protease inhibitor mixture (04693124001, Roche Applied Science). Animal tissues are homogenized in nine volumes of ice-cold PBS supplemented with protease inhibitors. Cytosolic and nuclear fractions are isolated using protocols similar to those described previously. Anti-Flag or TFEB antibody is added to the whole cell lysates and Dynabeads® Protein G (10003D, Life Technologies) is used for immunoprecipitation. Proteins are separated by 10-15% SDS-PAGE, transferred, and blotted with the antibodies described. The blots are then incubated with secondary antibodies or the Clean-Blot IP Detection Reagent (21230, Thermo Scientific) at room temperature for 1 h. The protein signals are detected by ECL kit (32106, Pierce) and quantified using ImageJ software.
# (§4) Inducible PC12 cells are treated with doxycycline (Dox, 2 μg/ml) for 24 h to induce the expression of HA-tagged wild-type (WT) or A53T mutant SNCA, and then treated with curcumin (10 μM), A2, B3 and C1 (1 μM) for another 48 h (FIGS. 8 A, C) in the presence or absence of chloroquine (CQ, 20 μM) and wortmannin (WM, 1 μM) (FIGS. 8 B, D). The expression of HA-SNCA is determined by western blots and quantified from three independent experiments. Corynoxine B (Cory B, 25 μM) is used as a positive control. […] Corynoxine B (Cory B) is used as a positive control.
# wild-type (WT) SNCA = assay: Degradation of HA-tagged wild-type SNCA in inducible PC12 cells; assay type: cell-based; conditions: for degradation of SNCA WT: Dox 24 h then 48 h, curcumin 10 μM, analogs 1 μM
# Method: as §1, §2, §3, §4
# purified His-TFEB = target: T1, purified His-TFEB (Homo sapiens, UniProt P19484); assay: Binding of solid-phase compound to purified recombinant His-TFEB; conditions: 17 μmol compound powder, RIPA buffer, 2 hours at 4° C.; 55 kDa band by TFEB antibody
# T1 construct: purchased ORIGENE TP760282
# T1 sequence (P19484 1-476): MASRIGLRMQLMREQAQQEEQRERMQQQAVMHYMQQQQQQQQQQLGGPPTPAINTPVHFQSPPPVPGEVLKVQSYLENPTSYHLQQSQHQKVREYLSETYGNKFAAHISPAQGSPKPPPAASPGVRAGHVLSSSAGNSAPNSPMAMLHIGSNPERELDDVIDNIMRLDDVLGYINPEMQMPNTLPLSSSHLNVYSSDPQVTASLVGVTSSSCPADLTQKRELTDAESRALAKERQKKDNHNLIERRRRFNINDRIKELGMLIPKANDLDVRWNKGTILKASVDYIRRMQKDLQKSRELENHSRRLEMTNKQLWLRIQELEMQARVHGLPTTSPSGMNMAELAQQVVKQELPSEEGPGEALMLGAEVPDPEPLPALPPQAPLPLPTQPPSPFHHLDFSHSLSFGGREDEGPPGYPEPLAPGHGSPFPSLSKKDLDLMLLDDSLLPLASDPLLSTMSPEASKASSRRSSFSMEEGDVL
# Method: Hela cells stably expressing 3×Flag-TFEB are treated with C1 (1 μM) for 12 h. Endogenous MTOR (A) and YWHA (B) are co-immunoprecipitated with Flag-TFEB. The levels of immunoprecipitated MTOR and YWHA are normalized to their corresponding levels in whole cell lysates (WCL). […] However, when MTOR and YWHA coimmunoprecipitated with Flag-TFEB after C1 treatment, interaction of MTOR and YWHA is decreased as compared with control. […] Furthermore, purified His-TFEB (TP760282, ORIGENE) is diluted in RIPA buffer and 17 μmol curcumin (6.3 mg) or C1 (5 mg) powder is added into TFEB solution and incubated for 2 hours at 4° C. with shaking. The supernatant is discarded after centrifuge. The pellet (compounds and the bound protein) is washes 4 times in RIPA buffer and the bound proteins are eluted by adding 2% SDS sampling buffer. The bound proteins are separated on 10% SDS—polyacrylamide gel and visualized by TFEB antibody (Proteintech).
# human P301S tau = assay: Oral treatment of P301S tau transgenic mice: Tau species in brain; assay type: in vivo; conditions: immunostaining of brain slices
SMILES,degradation of SNCA A53T (A53T mutant SNCA; inducible PC12 cells),degradation of SNCA WT (wild-type (WT) SNCA; inducible PC12 cells),direct binding to purified TFEB (purified His-TFEB),"activity in degrading SNCA in presence of wortmannin (WM) or CQ (A53T mutant SNCA; SNCA A53T, WM 1 μM, CQ 20 μM, 1 μM compound)","SNCA clearance, comparison among compounds (A53T mutant SNCA; inducible PC12 cells, SNCA A53T)","activity in degrading SNCA in presence of wortmannin (WM) or CQ (wild-type (WT) SNCA; SNCA WT, WM 1 μM, CQ 20 μM, 1 μM compound)","SNCA clearance, comparison among compounds (wild-type (WT) SNCA; inducible PC12 cells, SNCA WT)",AT8 and PHF1 positive cells in the hippocampus and cortex (human P301S tau)
"O=C(/C=C/c1cccc(C(F)(F)F)c1)/C=C/c1cccc(C(F)(F)F)c1 [A2, 1,5-bis(3-(trifluoromethyl)phenyl)penta-1,4-dien-3-one]",significantly degrade,significantly degrade,,,,,,
"COc1cc(/C=C/C(=O)CC(=O)/C=C/c2ccc(O)c(OC)c2)ccc1O [curcumin, Curcumin, reference compound]",promotes the degradation,no effect,not,,,,,
"O=C(/C=C/c1ccc(O)cc1)/C=C/c1ccc(O)cc1 [B3, 1,5-bis(4-hydroxyphenyl)penta-1,4-dien-3-one]",significantly degrade,significantly degrade,,,,,,
"COc1ccccc1/C=C/C(=O)/C=C/c1ccccc1OC [C1, 1,5-bis(2-methoxyphenyl)penta-1,4-dien-3-one]",significantly degrade,significantly degrade,can directly bind,significantly blocked,best effects,significantly blocked,best effects,dramatically reduced
